Experiments:
Test in all cases: KinomeScan panel screen
Assay type in all cases: binding
ACVR1 = biological target: T1, ACVR1 (Homo sapiens, UniProt Q04771); conditions: ACVR1, 100 nM; read-out: Percent Control
T1 construct: purchased DiscoveRx KINOMEscan (TRKA and CSF1R IC50 enzymes from Invitrogen)
Procedure: (§1) In addition, NPA101.3, at a concentration of 100 nM, was subjected to a kinome scan against a 96-kinase panel representing major kinome clusters (Table S2). The compound featured good selectivity, displaying strong binding activity (>90% bound) for only seven additional kinases [CSF1R (colony stimulating factor 1 receptor), FRK (fyn-related Src family tyrosine kinase), HCK (HCK proto-oncogene, Src family tyrosine kinase), LYN (lyn proto-oncogene, Src family tyrosine kinase), MKNK2 (MAPK-interacting serine/threonine kinase 2), TRKA (neurotrophic receptor tyrosine kinase 1), and TRKC (neurotrophic receptor tyrosine kinase 3)] and weak binding (>10–35% bound) for six other kinases (Table S2 and Figure S2). It is important to note that the measurement of binding affinity, which is based on control ligand displacement (Kd), is more sensitive than the in vitro kinase assay. Among the seven kinases with >90% binding, TRKA and CSF1R were selected for an in vitro kinase assay.
(§2) Supplementary Table S2: NPA101.3 KinomeScan Panel screen.
(§3) NPA101.3 was screened at a single concentration of 100 nM. Hits values lower than
(§4) 10% of control were considered strongly positive.
(§5) DiscoveRx Gene Entrez Gene Percent Compound
(§6) Symbol Symbol Control Concentration

AURKB = biological target: T2, AURKB (Homo sapiens, UniProt Q96GD4); conditions: 100 nM, read-out: Percent Control
T2 construct: purchased DiscoveRx KINOMEscan (TRKA and CSF1R IC50 enzymes from Invitrogen)
Procedure: as §1, §2, §3, §4, §5, §6

AXL = biological target: T3, AXL (Homo sapiens, UniProt P30530); conditions: 100 nM, read-out: Percent Control
T3 construct: purchased DiscoveRx KINOMEscan (TRKA and CSF1R IC50 enzymes from Invitrogen)
Procedure: as §1, §2, §3, §4, §5, §6

BMX = biological target: T4, BMX (Homo sapiens, UniProt P51813); conditions: 100 nM, read-out: Percent Control
T4 construct: purchased DiscoveRx KINOMEscan (TRKA and CSF1R IC50 enzymes from Invitrogen)
T4 sequence (P51813 whole entry): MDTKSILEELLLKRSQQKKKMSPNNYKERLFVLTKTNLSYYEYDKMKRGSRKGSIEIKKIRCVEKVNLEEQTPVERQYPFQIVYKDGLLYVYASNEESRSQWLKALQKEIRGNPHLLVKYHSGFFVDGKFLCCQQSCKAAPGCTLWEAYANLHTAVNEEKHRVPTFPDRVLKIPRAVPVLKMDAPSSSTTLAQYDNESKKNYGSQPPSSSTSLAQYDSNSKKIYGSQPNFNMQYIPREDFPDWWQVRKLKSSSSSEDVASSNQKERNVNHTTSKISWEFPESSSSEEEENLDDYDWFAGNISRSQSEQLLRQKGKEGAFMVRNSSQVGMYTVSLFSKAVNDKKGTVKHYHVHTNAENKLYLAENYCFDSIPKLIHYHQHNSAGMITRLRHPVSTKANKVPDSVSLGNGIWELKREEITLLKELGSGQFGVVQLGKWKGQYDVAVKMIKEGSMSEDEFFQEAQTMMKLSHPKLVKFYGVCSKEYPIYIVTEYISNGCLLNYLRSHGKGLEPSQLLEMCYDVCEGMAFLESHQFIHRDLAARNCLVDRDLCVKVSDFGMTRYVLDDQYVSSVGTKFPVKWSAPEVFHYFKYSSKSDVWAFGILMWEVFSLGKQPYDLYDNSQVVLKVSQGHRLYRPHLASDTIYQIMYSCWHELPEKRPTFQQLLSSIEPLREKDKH
Procedure: as §1, §2, §3, §4, §5, §6

BRAF = biological target: T5, BRAF (Homo sapiens, UniProt P15056); conditions: 100 nM, read-out: Percent Control
T5 construct: purchased DiscoveRx KINOMEscan (TRKA and CSF1R IC50 enzymes from Invitrogen)
Procedure: as §1, §2, §3, §4, §5, §6

BTK = biological target: T6, BTK (Homo sapiens, UniProt Q06187); conditions: 100 nM, read-out: Percent Control
T6 construct: purchased DiscoveRx KINOMEscan (TRKA and CSF1R IC50 enzymes from Invitrogen)
Procedure: as §1, §2, §3, §4, §5, §6

CDK5 = biological target: T7, CDK5 (Homo sapiens, UniProt Q00535); conditions: CDK5, 100 nM; read-out: Percent Control
T7 construct: purchased DiscoveRx KINOMEscan (TRKA and CSF1R IC50 enzymes from Invitrogen)
T7 sequence (Q00535 whole entry): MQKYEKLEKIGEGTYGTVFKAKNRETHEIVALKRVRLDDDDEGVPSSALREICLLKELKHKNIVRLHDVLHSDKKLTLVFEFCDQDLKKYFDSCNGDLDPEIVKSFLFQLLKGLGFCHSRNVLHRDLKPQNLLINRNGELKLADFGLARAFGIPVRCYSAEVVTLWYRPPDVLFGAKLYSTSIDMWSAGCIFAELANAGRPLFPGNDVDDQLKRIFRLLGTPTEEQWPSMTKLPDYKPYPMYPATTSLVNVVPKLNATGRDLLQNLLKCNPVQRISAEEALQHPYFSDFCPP
Procedure: as §1, §2, §3, §4, §5, §6

CDK7 = biological target: T8, CDK7 (Homo sapiens, UniProt P50613); conditions: CDK7, 100 nM; read-out: Percent Control
T8 construct: purchased DiscoveRx KINOMEscan (TRKA and CSF1R IC50 enzymes from Invitrogen)
T8 sequence (P50613 whole entry): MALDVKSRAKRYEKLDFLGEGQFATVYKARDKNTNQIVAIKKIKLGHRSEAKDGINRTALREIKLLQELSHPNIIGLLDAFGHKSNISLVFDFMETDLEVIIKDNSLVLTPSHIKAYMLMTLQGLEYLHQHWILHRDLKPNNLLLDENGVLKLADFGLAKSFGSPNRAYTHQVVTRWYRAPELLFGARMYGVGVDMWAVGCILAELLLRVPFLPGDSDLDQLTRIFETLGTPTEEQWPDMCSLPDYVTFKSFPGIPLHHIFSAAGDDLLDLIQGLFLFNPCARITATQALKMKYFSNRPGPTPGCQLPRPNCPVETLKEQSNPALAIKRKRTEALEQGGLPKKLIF
Procedure: as §1, §2, §3, §4, §5, §6

CLK1 = biological target: T9, CLK1 (Homo sapiens, UniProt P49759); conditions: CLK1, 100 nM; read-out: Percent Control
T9 construct: purchased DiscoveRx KINOMEscan (TRKA and CSF1R IC50 enzymes from Invitrogen)
T9 sequence (P49759 whole entry): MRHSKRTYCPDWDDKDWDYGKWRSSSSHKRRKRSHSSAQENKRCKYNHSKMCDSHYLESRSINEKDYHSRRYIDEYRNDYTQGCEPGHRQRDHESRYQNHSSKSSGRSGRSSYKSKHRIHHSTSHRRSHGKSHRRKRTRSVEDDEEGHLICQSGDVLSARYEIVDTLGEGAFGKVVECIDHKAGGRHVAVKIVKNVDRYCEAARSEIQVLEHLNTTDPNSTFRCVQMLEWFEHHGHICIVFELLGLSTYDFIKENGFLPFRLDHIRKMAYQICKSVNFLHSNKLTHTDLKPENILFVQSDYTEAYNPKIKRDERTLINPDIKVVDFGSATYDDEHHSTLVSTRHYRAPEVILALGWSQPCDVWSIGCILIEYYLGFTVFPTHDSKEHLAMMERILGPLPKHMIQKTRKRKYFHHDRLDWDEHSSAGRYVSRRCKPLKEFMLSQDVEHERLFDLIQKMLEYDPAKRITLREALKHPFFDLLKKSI
Procedure: as §1, §2, §3, §4, §5, §6

CSNK1A1 = biological target: T10, CSNK1A1 (Homo sapiens, UniProt P48729); conditions: CSNK1A1, 100 nM; read-out: Percent Control
T10 construct: purchased DiscoveRx KINOMEscan (TRKA and CSF1R IC50 enzymes from Invitrogen)
Procedure: as §1, §2, §3, §4, §5, §6

DMPK = biological target: T11, DMPK (Homo sapiens, UniProt Q09013); conditions: 100 nM, read-out: Percent Control
T11 construct: purchased DiscoveRx KINOMEscan (TRKA and CSF1R IC50 enzymes from Invitrogen)
T11 sequence (Q09013 whole entry): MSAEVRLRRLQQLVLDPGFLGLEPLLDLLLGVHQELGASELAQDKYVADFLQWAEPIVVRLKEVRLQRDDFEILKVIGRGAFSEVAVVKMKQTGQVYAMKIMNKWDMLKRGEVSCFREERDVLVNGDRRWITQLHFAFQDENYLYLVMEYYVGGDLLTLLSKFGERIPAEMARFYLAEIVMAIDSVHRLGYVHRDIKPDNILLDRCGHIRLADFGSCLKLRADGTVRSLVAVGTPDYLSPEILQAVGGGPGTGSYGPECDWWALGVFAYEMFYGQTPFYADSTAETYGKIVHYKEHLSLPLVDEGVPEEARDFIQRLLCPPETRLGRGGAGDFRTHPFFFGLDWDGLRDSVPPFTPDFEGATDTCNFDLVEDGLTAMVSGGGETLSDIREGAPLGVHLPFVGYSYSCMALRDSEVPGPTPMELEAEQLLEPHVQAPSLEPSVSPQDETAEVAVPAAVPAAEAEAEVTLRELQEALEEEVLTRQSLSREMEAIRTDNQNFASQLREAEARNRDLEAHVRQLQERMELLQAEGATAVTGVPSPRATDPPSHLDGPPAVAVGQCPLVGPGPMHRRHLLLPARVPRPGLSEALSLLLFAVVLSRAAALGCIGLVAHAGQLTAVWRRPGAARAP
Procedure: as §1, §2, §3, §4, §5, §6

DRAK1 = biological target: T12, DRAK1 (Homo sapiens, UniProt Q9UEE5); conditions: DRAK1, 100 nM; read-out: Percent Control
T12 construct: purchased DiscoveRx KINOMEscan (TRKA and CSF1R IC50 enzymes from Invitrogen)
T12 sequence (Q9UEE5 whole entry): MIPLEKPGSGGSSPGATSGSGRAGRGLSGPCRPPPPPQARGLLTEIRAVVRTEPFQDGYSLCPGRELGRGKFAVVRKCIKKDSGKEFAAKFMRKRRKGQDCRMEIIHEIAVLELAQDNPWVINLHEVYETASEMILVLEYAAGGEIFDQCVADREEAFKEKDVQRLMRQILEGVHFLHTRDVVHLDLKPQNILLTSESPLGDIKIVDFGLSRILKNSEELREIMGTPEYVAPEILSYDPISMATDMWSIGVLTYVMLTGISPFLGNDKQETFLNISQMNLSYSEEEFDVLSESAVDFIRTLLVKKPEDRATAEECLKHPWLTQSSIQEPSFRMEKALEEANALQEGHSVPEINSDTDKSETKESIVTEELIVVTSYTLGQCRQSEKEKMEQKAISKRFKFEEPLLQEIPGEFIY
Procedure: as §1, §2, §3, §4, §5, §6

ERK1 = biological target: T13, ERK1 (Homo sapiens, UniProt P27361); conditions: ERK1, 100 nM; read-out: Percent Control
T13 construct: purchased DiscoveRx KINOMEscan (TRKA and CSF1R IC50 enzymes from Invitrogen)
Procedure: as §1, §2, §3, §4, §5, §6

FAK = biological target: T14, FAK (Homo sapiens, UniProt Q05397); conditions: 100 nM, read-out: Percent Control
T14 construct: purchased DiscoveRx KINOMEscan (TRKA and CSF1R IC50 enzymes from Invitrogen)
Procedure: as §1, §2, §3, §4, §5, §6

GSK3B = biological target: T15, GSK3B (Homo sapiens, UniProt P49841); conditions: 100 nM, read-out: Percent Control
T15 construct: purchased DiscoveRx KINOMEscan (TRKA and CSF1R IC50 enzymes from Invitrogen)
Procedure: as §1, §2, §3, §4, §5, §6

HIPK2 = biological target: T16, HIPK2 (Homo sapiens, UniProt Q9H2X6); conditions: HIPK2, 100 nM; read-out: Percent Control
T16 construct: purchased DiscoveRx KINOMEscan (TRKA and CSF1R IC50 enzymes from Invitrogen)
Procedure: as §1, §2, §3, §4, §5, §6

IRAK4 = biological target: T17, IRAK4 (Homo sapiens, UniProt Q9NWZ3); conditions: IRAK4, 100 nM; read-out: Percent Control
T17 construct: purchased DiscoveRx KINOMEscan (TRKA and CSF1R IC50 enzymes from Invitrogen)
Procedure: as §1, §2, §3, §4, §5, §6

[1] = biological target: T18, JAK1(JH2domain-pseudokinase) (Homo sapiens, UniProt P23458); conditions: 100 nM, read-out: Percent Control
T18 construct: JAK1(JH2domain-pseudokinase); purchased DiscoveRx KINOMEscan (TRKA and CSF1R IC50 enzymes from Invitrogen)
Procedure: as §1, §2, §3, §4, §5, §6

[2] = biological target: T19, JAK2(JH1domain-catalytic) (Homo sapiens, UniProt O60674); conditions: 100 nM, read-out: Percent Control
T19 construct: JAK2(JH1domain-catalytic); purchased DiscoveRx KINOMEscan (TRKA and CSF1R IC50 enzymes from Invitrogen)
T19 sequence (O60674 840-1132 limits assumed): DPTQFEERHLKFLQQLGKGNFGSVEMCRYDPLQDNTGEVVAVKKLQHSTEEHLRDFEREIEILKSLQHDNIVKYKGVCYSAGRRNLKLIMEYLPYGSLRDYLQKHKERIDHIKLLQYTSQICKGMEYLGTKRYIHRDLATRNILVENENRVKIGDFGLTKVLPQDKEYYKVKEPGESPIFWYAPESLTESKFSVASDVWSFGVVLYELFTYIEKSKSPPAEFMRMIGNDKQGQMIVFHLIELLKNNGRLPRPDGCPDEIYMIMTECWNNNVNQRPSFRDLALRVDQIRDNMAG
Procedure: as §1, §2, §3, §4, §5, §6

LTK = biological target: T20, LTK (Homo sapiens, UniProt P29376); conditions: 100 nM, read-out: Percent Control
T20 construct: purchased DiscoveRx KINOMEscan (TRKA and CSF1R IC50 enzymes from Invitrogen)
Procedure: as §1, §2, §3, §4, §5, §6

MEK1 = biological target: T21, MEK1 (Homo sapiens, UniProt Q02750); conditions: MEK1, 100 nM; read-out: Percent Control
T21 construct: purchased DiscoveRx KINOMEscan (TRKA and CSF1R IC50 enzymes from Invitrogen)
Procedure: as §1, §2, §3, §4, §5, §6

MET = biological target: T22, MET (Homo sapiens, UniProt P08581); conditions: 100 nM, read-out: Percent Control
T22 construct: purchased DiscoveRx KINOMEscan (TRKA and CSF1R IC50 enzymes from Invitrogen)
Procedure: as §1, §2, §3, §4, §5, §6

MKNK2 = biological target: T23, MKNK2 (Homo sapiens, UniProt Q9HBH9)
T23 construct: purchased DiscoveRx KINOMEscan (TRKA and CSF1R IC50 enzymes from Invitrogen)
T23 sequence (Q9HBH9 whole entry): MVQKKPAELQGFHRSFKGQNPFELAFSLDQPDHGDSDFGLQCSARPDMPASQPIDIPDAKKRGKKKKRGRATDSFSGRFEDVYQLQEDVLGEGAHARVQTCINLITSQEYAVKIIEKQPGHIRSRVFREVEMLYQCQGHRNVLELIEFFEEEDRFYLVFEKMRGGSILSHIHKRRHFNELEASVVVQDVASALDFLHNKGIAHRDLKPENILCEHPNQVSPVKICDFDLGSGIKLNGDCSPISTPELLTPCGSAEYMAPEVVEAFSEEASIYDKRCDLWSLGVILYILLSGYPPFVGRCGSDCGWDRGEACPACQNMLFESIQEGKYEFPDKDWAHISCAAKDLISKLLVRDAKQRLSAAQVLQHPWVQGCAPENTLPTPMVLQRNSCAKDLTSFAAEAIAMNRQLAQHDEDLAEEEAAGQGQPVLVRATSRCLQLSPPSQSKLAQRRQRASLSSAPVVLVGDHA
Procedure: as §1, §2, §3, §4, §5, §6

MYO3A = biological target: T24, MYO3A (Homo sapiens, UniProt Q8NEV4); conditions: 100 nM, read-out: Percent Control
T24 construct: purchased DiscoveRx KINOMEscan (TRKA and CSF1R IC50 enzymes from Invitrogen)
Procedure: as §1, §2, §3, §4, §5, §6

PAK1 = biological target: T25, PAK1 (Homo sapiens, UniProt Q13153); conditions: PAK1, 100 nM; read-out: Percent Control
T25 construct: purchased DiscoveRx KINOMEscan (TRKA and CSF1R IC50 enzymes from Invitrogen)
Procedure: as §1, §2, §3, §4, §5, §6

PKAC-beta = biological target: T26, PKAC-beta (Homo sapiens, UniProt P22694); conditions: 100 nM, read-out: Percent Control
T26 construct: purchased DiscoveRx KINOMEscan (TRKA and CSF1R IC50 enzymes from Invitrogen)
Procedure: as §1, §2, §3, §4, §5, §6

PLK1 = biological target: T27, PLK1 (Homo sapiens, UniProt P53350); conditions: PLK1, 100 nM; read-out: Percent Control
T27 construct: purchased DiscoveRx KINOMEscan (TRKA and CSF1R IC50 enzymes from Invitrogen)
Procedure: as §1, §2, §3, §4, §5, §6

TAK1 = biological target: T28, TAK1 (Homo sapiens, UniProt O43318); conditions: TAK1, 100 nM; read-out: Percent Control
T28 construct: purchased DiscoveRx KINOMEscan (TRKA and CSF1R IC50 enzymes from Invitrogen)
Procedure: as §1, §2, §3, §4, §5, §6

TIE2 = biological target: T29, TIE2 (Homo sapiens, UniProt Q02763); conditions: TIE2, 100 nM; read-out: Percent Control
T29 construct: purchased DiscoveRx KINOMEscan (TRKA and CSF1R IC50 enzymes from Invitrogen)
Procedure: as §1, §2, §3, §4, §5, §6

TRKC = biological target: T30, TRKC (Homo sapiens, UniProt Q16288); conditions: 100 nM
T30 construct: purchased DiscoveRx KINOMEscan (TRKA and CSF1R IC50 enzymes from Invitrogen)
T30 sequence (Q16288 32-839): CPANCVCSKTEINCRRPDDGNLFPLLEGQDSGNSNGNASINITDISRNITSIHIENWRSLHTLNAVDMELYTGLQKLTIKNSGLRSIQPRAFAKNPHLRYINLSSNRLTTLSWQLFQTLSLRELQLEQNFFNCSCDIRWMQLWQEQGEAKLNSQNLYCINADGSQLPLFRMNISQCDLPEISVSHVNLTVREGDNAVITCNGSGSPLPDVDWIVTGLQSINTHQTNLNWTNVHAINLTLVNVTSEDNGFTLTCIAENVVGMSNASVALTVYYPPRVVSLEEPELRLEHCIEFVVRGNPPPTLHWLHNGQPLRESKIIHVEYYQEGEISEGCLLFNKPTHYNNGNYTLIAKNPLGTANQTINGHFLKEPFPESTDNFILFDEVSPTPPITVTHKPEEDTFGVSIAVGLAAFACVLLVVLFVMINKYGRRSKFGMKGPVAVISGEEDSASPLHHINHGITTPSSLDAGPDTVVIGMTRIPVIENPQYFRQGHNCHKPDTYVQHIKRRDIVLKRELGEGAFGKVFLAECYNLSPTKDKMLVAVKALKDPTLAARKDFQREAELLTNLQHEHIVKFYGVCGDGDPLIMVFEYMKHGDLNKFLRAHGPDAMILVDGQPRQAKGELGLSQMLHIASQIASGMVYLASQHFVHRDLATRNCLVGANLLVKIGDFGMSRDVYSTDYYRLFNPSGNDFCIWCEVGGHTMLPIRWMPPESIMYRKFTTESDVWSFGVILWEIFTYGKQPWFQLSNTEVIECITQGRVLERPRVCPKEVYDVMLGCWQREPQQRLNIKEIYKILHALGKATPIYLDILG
Procedure: as §1, §2, §3, §4, §5, §6

TSSK1B = biological target: T31, TSSK1B (Homo sapiens, UniProt Q9BXA7); conditions: 100 nM, read-out: Percent Control
T31 construct: purchased DiscoverX (outsourced KINOMEscan)
T31 sequence (Q9BXA7 whole entry): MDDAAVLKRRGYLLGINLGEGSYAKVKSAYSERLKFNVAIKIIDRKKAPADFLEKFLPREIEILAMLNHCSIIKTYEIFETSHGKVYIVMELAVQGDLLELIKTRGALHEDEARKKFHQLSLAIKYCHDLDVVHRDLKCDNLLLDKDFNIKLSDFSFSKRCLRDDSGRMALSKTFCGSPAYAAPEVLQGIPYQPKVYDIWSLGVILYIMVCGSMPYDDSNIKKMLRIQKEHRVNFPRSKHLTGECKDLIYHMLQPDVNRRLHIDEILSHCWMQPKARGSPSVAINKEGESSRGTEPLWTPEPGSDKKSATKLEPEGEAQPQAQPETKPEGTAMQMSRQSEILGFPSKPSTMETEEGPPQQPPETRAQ
Procedure: as §1, §2, §3, §4, §5, §6

Q: With `CC(C)(C)c1cc(NC(=O)Cc2ccc(-n3cnc4cc(-c5ccc(S(C)(=O)=O)cc5)ccc43)cc2)no1` [NPA101.3] as the compound, how does the remaining binding at 0.1 µM (ACVR1) read?
A: 92%

Q: What about the remaining binding at 0.1 µM (AURKB) of the same compound?
A: 49%

Q: What about the remaining binding at 0.1 µM (AXL) of the same compound?
A: 62%

Q: What about the remaining binding at 0.1 µM (BMX) of the same compound?
A: 94%

Q: What about the remaining binding at 0.1 µM (BRAF) of the same compound?
A: 98%

Q: What about the remaining binding at 0.1 µM (BTK) of the same compound?
A: 93%

Q: What about the remaining binding at 0.1 µM (CDK5) of the same compound?
A: 97%

Q: And the remaining binding at 0.1 µM (CDK7)?
A: 28%

Q: What about the remaining binding at 0.1 µM (CLK1) of the same compound?
A: 82%

Q: And the remaining binding at 0.1 µM (CSNK1A1)?
A: 69%

Q: And the remaining binding at 0.1 µM (DMPK)?
A: 99%

Q: And the remaining binding at 0.1 µM (DRAK1)?
A: 75%

Q: What about the remaining binding at 0.1 µM (ERK1) of the same compound?
A: 100%

Q: And the remaining binding at 0.1 µM (FAK)?
A: 86%

Q: What about the remaining binding at 0.1 µM (GSK3B) of the same compound?
A: 100%

Q: And the remaining binding at 0.1 µM (HIPK2)?
A: 98%

Q: What about the remaining binding at 0.1 µM (IRAK4) of the same compound?
A: 100%

Q: What about the remaining binding at 0.1 µM [1] of the same compound?
A: 93%

Q: What about the remaining binding at 0.1 µM [2] of the same compound?
A: 100%

Q: And the remaining binding at 0.1 µM (LTK)?
A: 61%

Q: What about the remaining binding at 0.1 µM (MEK1) of the same compound?
A: 92%

Q: What about the remaining binding at 0.1 µM (MET) of the same compound?
A: 79%

Q: And the “binding (% bound)” value (MKNK2; 100 nM)?
A: > 90 % bound

Q: What about the remaining binding at 0.1 µM (MKNK2; MKNK2, 100 nM, read-out: Percent Control) of the same compound?
A: 0.15%

Q: What about the remaining binding at 0.1 µM (MYO3A) of the same compound?
A: 77%

Q: And the remaining binding at 0.1 µM (PAK1)?
A: 100%

Q: What about the remaining binding at 0.1 µM (PKAC-beta) of the same compound?
A: 82%

Q: And the remaining binding at 0.1 µM (PLK1)?
A: 99%

Q: And the remaining binding at 0.1 µM (TAK1)?
A: 13%

Q: What about the remaining binding at 0.1 µM (TIE2) of the same compound?
A: 30%

Q: What about the “binding (% bound)” value (TRKC) of the same compound?
A: > 90 % bound

Q: And the remaining binding at 0.1 µM (TRKC; TRKC, read-out: Percent Control)?
A: 0.25%

Q: What about the remaining binding at 0.1 µM (TSSK1B) of the same compound?
A: 96%
